Measured values: ChEMBL document CHEMBL5154832, “Design, Synthesis, and Proof-of-Concept of Triple-Site Inhibitors against Aminoacyl-tRNA Synthetases” (J Med Chem, 2022)
Converted amounts (≈) assume the structure as drawn.

Tests used:
[1] = target: T1, Threonine--tRNA ligase (Salmonella enterica) (UniProt A0A3F3IEK2); assay: Inhibition of recombinant salmonella enterica threonyl-tRNA synthetase assessed as reduction in enzyme activity at 10 uM incubated for 20 min by Kinase Glo luminescence assay relative to control
T1 sequence (whole entry): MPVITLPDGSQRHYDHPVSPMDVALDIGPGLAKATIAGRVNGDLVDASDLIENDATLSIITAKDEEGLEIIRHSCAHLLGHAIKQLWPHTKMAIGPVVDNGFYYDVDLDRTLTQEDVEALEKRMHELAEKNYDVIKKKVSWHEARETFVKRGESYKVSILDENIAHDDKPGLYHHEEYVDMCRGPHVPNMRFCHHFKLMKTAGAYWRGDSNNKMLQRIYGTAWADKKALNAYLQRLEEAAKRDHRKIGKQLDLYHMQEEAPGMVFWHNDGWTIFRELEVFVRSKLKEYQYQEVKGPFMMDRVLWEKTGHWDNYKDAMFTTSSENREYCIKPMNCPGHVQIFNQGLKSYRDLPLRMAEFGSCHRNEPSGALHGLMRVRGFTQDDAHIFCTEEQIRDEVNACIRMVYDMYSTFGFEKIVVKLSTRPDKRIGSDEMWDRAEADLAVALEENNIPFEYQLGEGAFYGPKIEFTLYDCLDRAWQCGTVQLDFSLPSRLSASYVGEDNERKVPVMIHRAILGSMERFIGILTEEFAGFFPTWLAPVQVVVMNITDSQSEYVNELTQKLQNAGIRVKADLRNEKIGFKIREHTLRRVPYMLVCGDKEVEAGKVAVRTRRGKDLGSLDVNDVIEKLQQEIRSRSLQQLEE

Staphylococcus aureus [2] = assay: Antibacterial activity against Staphylococcus aureus MRSA R3708 strain assessed as inhibition of bacterial growth incubated for 8 hrs by CLSI protocol based microdilution assay; type: functional
Enterococcus faecalis = assay: Antibacterial activity against Enterococcus faecalis ATCC 29212 strain assessed as inhibition of bacterial growth incubated for 8 hrs by CLSI protocol based microdilution assay; type: functional
Escherichia coli [3] = assay: Antibacterial activity against Escherichia coli acraB strain assessed as inhibition of bacterial growth incubated for 8 hrs by CLSI protocol based microdilution assay; type: functional
Escherichia coli [4] = assay: Antibacterial activity against Escherichia coli ATCC 25922 strain assessed as inhibition of bacterial growth incubated for 8 hrs by CLSI protocol based microdilution assay; type: functional
Threonine--tRNA ligase = target: T2, Threonine--tRNA ligase (Salmonella enterica, UniProt A0A3F3IEK2); assay: Inhibition of recombinant salmonella enterica threonyl-tRNA synthetase assessed as reduction in enzyme activity incubated for 20 min by Kinase Glo luminescence assay
T2 sequence (A0A3F3IEK2 whole entry): T1 sequence (whole entry)

Staphylococcus aureus [5] = assay: Antibacterial activity against Staphylococcus aureus ATCC 29213 strain assessed as inhibition of bacterial growth incubated for 8 hrs by CLSI protocol based microdilution assay; type: functional
[6] = target: T1, Threonine--tRNA ligase (Salmonella enterica); assay: Binding affinity to recombinant salmonella enterica threonyl-tRNA synthetase assessed as change in melting temperature at 0.1 mM by fluorescence-based thermal shift assay
Pseudomonas aeruginosa = assay: Antibacterial activity against Pseudomonas aeruginosa ATCC27853 strain assessed as inhibition of bacterial growth incubated for 8 hrs by CLSI protocol based microdilution assay; type: functional
Salmonella enterica = assay: Antibacterial activity against Salmonella enterica 87 strain assessed as inhibition of bacterial growth incubated for 8 hrs by CLSI protocol based microdilution assay; type: functional

SMILES | inhibition [1] [%] | MIC (Staphylococcus aureus [2]) [µg/mL] | MIC (Enterococcus faecalis) [µg/mL] | MIC (Escherichia coli [3]) [µg/mL] | MIC (Escherichia coli [4]) [µg/mL] | IC50 (Threonine--tRNA ligase) [nM] | MIC (Staphylococcus aureus [5]) [µg/mL] | ΔTm [6] [°C] | MIC (Pseudomonas aeruginosa) [µg/mL] | MIC (Salmonella enterica) [µg/mL]
C[C@@H](O)[C@H](N)C(=O)N(CCCCCCn1cnc2cc(Br)c(Cl)cc2c1=O)Cc1cccc(-c2ccc3c(c2)CNC3=O)c1 | 75 | 64 (≈ 94 µM) | 64 (≈ 94 µM) | 64 (≈ 94 µM) | ≥ 128 | 5680 | 64 (≈ 94 µM) | 23.5 | 64 (≈ 94 µM) | ≥ 128
C[C@@H](O)[C@H](N)C(=O)N[C@@H](CNC(=O)CCn1cnc2cc(Cl)c(F)cc2c1=O)c1cccc(-c2ccccc2)c1 | > 99 | 32 (≈ 56.5 µM) | 32 (≈ 56.5 µM) | 32 (≈ 56.5 µM) | ≥ 128 | 550 | 16 (≈ 28.3 µM) | 22.6 | 16 (≈ 28.3 µM) | ≥ 128
C[C@@H](O)[C@H](N)C(=O)N(CCCC(=O)NCCn1cnc2cc(Br)c(Cl)cc2c1=O)Cc1cccc(-c2ccc3c(c2)CNC3=O)c1 | 84 | ≥ 128 | 64 (≈ 90.1 µM) | 64 (≈ 90.1 µM) | ≥ 128 | 2990 | ≥ 128 | 27.8 | 64 (≈ 90.1 µM) | ≥ 128
C[C@@H](O)[C@H](N)C(=O)N[C@H](CNC(=O)CCn1cnc2cc(Br)c(Cl)cc2c1=O)c1cccc(-c2ccccc2)c1 | 8 |  |  |  |  |  |  | 7 |  | 
C[C@@H](O)[C@H](N)C(=O)N[C@H](CNC(=O)CCn1cnc2cc(Cl)c(Cl)cc2c1=O)c1cccc(-c2ccccc2)c1 |  |  |  |  |  |  |  | 5 |  | 
C[C@@H](O)[C@H](N)C(=O)N[C@@H](CNC(=O)CCn1cnc2cc(Br)c(Cl)cc2c1=O)c1cccc(-c2ccccc2)c1 | 82 | 32 (≈ 51 µM) | 32 (≈ 51 µM) | 32 (≈ 51 µM) | ≥ 128 | 3710 | 32 (≈ 51 µM) | 20.1 | 16 (≈ 25.5 µM) | ≥ 128
C[C@@H](O)[C@H](N)C(=O)N(CCC(=O)N1CCN(CCn2cnc3cc(Br)c(Cl)cc3c2=O)CC1)Cc1cccc(-c2ccc3c(c2)CNC3=O)c1 |  |  |  |  |  |  |  | 0 |  | 
C[C@@H](O)[C@H](N)C(=O)N[C@@H](CNC(=O)CCn1cnc2cc(Br)c(Cl)cc2c1=O)c1cccc(-c2ccc3ccccc3c2)c1 | 85 | 4 (≈ 5.91 µM) | 4 (≈ 5.91 µM) | 8 (≈ 11.8 µM) | ≥ 128 | 2100 | 4 (≈ 5.91 µM) | 20.2 | 4 (≈ 5.91 µM) | ≥ 128
CN[C@H](CC(C)C)C(=O)N[C@H]1C(=O)N[C@@H](CC(N)=O)C(=O)N[C@H]2C(=O)N[C@H]3C(=O)N[C@H](C(=O)N[C@H](C(=O)O)c4cc(O)cc(O)c4-c4cc3ccc4O)[C@H](O)c3ccc(c(Cl)c3)Oc3cc2cc(c3O[C@@H]2O[C@H](CO)[C@@H](O)[C@H](O)[C@H]2O[C@H]2C[C@](C)(N)[C@H](O)[C@H](C)O2)Oc2ccc(cc2Cl)[C@H]1O [VANCOMYCIN] |  |  | 2 (≈ 1.38 µM) |  |  |  |  |  |  | 
C[C@@H](O)[C@H](N)C(=O)NS(=O)(=O)c1cccc(-c2ccc3[nH]ncc3c2)c1 | > 99 | ≥ 128 | ≥ 128 | ≥ 128 | ≥ 128 | 190 | ≥ 128 | 29.9 | ≥ 128 | ≥ 128
C[C@@H](O)[C@H](N)C(=O)N[C@@H](CNC(=O)CCn1cnc2cc(Br)c(Cl)cc2c1=O)c1cccc(-c2ccc3[nH]ncc3c2)c1 | > 99 | ≥ 128 | ≥ 128 | ≥ 128 | ≥ 128 | 194 | ≥ 128 | 28 | ≥ 128 | ≥ 128
C[C@@H](O)[C@H](N)C(=O)N[C@@H](CNC(=O)CCn1cnc2cc(Cl)c(Cl)cc2c1=O)c1cccc(-c2ccccc2)c1 | > 99 | 16 (≈ 27.5 µM) | 32 (≈ 54.9 µM) | 16 (≈ 27.5 µM) | ≥ 128 | 520 | 32 (≈ 54.9 µM) | 23 | 16 (≈ 27.5 µM) | ≥ 128
C[C@@H](O)[C@H](N)C(=O)N[C@H](CNC(=O)CCn1cnc2cc(Br)c(Cl)cc2c1=O)c1cccc(-c2ccc3ccccc3c2)c1 |  |  |  |  |  |  |  | 4.8 |  | 
